From patent US20040142899A1, “Compositions and methods for enhanced biostability and altered biodistribution of oligonucleotides in mammals” (ISIS Pharmaceuticals, Inc., priority 1990, published 2004)

Assays:
DNA = assay: Tm change due to pyrene conjugation, against DNA; type: binding; conditions: 100 mM Na+, 10 nM phosphate, 0.1 mM EDTA, pH 7, 4 μM strand concentration
Experimental: (§1) Changes in Tm due to pyrene conjugation were evaluated against both DNA and RNA. Tm was measured in 100 mM Na^+, 10 nM phosphate, 0.1 mM EDTA, pH 7 at 4 μM strand concentration.

RNA = assay: Tm change due to pyrene conjugation, against RNA; type: binding; conditions: 100 mM Na+, 10 nM phosphate, 0.1 mM EDTA, pH 7, 4 μM strand concentration
Experimental: as §1

5′-GCG-TGU*-CTG-CG (5'-GCG-TGU*-CTG-CG; 2'-O-aminohexyl uridine linker, as printed in the source, key not given here) [Oligomer 52, U* from 2′-O-[hexyl-(Ω-N-phthalimido)amino]uridine amidite; amino linker]
Tm v. DNA (DNA): 50.9 °C | Tm v. RNA (RNA): 55.5 °C
